How the values were obtained:
[1] = test system: Candida albicans; test: Synergism of menthol, menthyl acetate or their ratios with antifungal drugs (MIC, FIC, fold enhancement); assay type: cell-based, Candida albicans (MTCC1637 equivalent to ATCC 18804); settings: for synergism of the individual compound with Clotrimazole, Amphotericin B and Nystatin: individual compound at a concentration of 0.25 μg/ml
Description: In the present invention Candida albicans (MTCC1637 equivalent to ATCC 18804)=Interdigital mycoses, Neotype strain, production of citric acid) is used for all the experimentations (MTCC=Microbial type culture collection, Institute of Microbial Technology, Chandigarh, India). […]
The fractional inhibitory concentrations (FIC) are calculated by dividing the MIC of the combination with the MIC of antifungal compound alone. The enhancement is calculated by dividing the MIC of the antifungal compound with the MIC of the combination. […] Similarly, the maximum enhancement of Amphotericin is detected for the same set of ratios (2114, 2115, 2116). The enhancement of Nystatin is detected in the combinations with ratios 2112 and 2114. (TABLE 3)

[2] = test system: Candida albicans; test: Minimum inhibitory concentration (MIC) in broth culture of Candida albicans; assay type: cell-based, Candida albicans (MTCC1637 equivalent to ATCC 18804); settings: for activity of the components at the concentrations used: proportional concentrations within 0.25 μg/ml
Description: In the present invention Candida albicans (MTCC1637 equivalent to ATCC 18804)=Interdigital mycoses, Neotype strain, production of citric acid) is used for all the experimentations (MTCC=Microbial type culture collection, Institute of Microbial Technology, Chandigarh, India).
The minimum inhibitory concentrations (MIC) of the compound menthyl acetate and menthol is determined in broth culture of Candida albicans and is estimated to be […] and 500 μg/ml respectively.
A combination of the two compounds menthol and menthyl acetate in 1:1 ratio is evaluated for synergistic action if any. […] Therefore this combination is further tested for activity against Candida in combination with known antifungal drugs.
Following ratios are prepared by dissolving menthol in menthyl acetate. The ratios are tested for minimum inhibitory concentration in broth cultures of Candida albicans. As mentioned in the TABLE 1, the MIC of ratios are several folds lower than the additive MIC of individual compounds. Identification numbers of the ratios are the numbers given to identify the combination and mean nothing more than this. […] All these combinations are found to be synergistic for antifungal activities.

[3] = antifungal drug alone or with menthol/menthyl acetate combination at 0.25 μg/ml

`C[C@@H]1[C@H](O)[C@@H](C)/C=C/C=C/C=C/C=C/C=C/C=C/C=C/[C@H](O[C@@H]2O[C@H](C)[C@@H](O)[C@H](N)[C@@H]2O)C[C@@H]2O[C@](O)(C[C@@H](O)C[C@@H](O)[C@H](O)CC[C@@H](O)C[C@@H](O)CC(=O)O[C@H]1C)C[C@H](O)[C@H]2C(=O)O` [Amphotericin B (A), Amphotericin B] showed an MIC ([1]; Amphotericin B (A) + Menthyl acetate (μg/ml)) of 2.5 µg/mL, an MIC ([1]; Candida albicans, Amphotericin B (A) + Menthol (μg/ml), read-out: MIC) of 2.5 µg/mL and an MIC [1, 3] of 2.5 µg/mL.

With `Clc1ccccc1C(c1ccccc1)(c1ccccc1)n1ccnc1` [Clotrimazole (C), Clotrimazole] the MIC ([1]; Candida albicans, Clotrimazole (C) + Menthyl acetate (μg/ml), read-out: MIC) was 1.25 µg/mL, the MIC ([1]; Clotrimazole (C) + Menthol (μg/ml)) was 1.25 μ/ml and the MIC [1, 3] was 1.25 µg/mL.

`C[C@@H]1[C@H](O)[C@@H](C)/C=C/C=C/CC/C=C/C=C/C=C/C=C/C(O[C@H]2O[C@H](C)[C@@H](O)[C@H](N)[C@@H]2O)CC2O[C@](O)(CC(O)C(O)CCC(O)CC(O)CC(O)CC(=O)O[C@H]1C)CC(O)C2C(=O)O` (stereo partly drawn) [Nystatin (N), Nystatin] was tested, and the MIC ([1]; Nystatin (N) + Menthol (μg/ml)) was 5.0 µg/mL, the MIC ([1]; Nystatin (N) + Menthyl acetate (μg/ml)) was 5.0 µg/mL and the MIC [1, 3] was 5.0 µg/mL.

For `CC1CCC(C(C)C)C(O)C1` (stereo not drawn) [menthol], the MIC ([2]; broth culture of Candida albicans, read-out: minimum inhibitory concentrations (MIC)) was 500 µg/mL, the “activity of the components at the concentrations used” value [2] was “do not have any activity” and the “synergism of the individual compound with Clotrimazole, Amphotericin B and Nystatin” value [1] was “neither menthol nor menthyl acetate could lower the MIC”.

`CC(=O)OC1CC(C)CCC1C(C)C` (stereo not drawn) [menthyl acetate] was tested, and the “minimum inhibitory concentrations (MIC)” value ([2]; broth culture of Candida albicans, printed as a dilution fraction) was 1/400, the “activity of the components at the concentrations used” value [2] was “do not have any activity” and the “synergism of the individual compound with Clotrimazole, Amphotericin B and Nystatin” value [1] was “neither menthol nor menthyl acetate could lower the MIC”.
